According to patent US20090291877A1, “TREATMENTS USING CITRULLINE” (priority 2006, published 2009):

Key:
[1] = Haemodynamics (MAP, systemic blood pressure, norepinephrine dose) during 72-h intravenous infusion in ICU patients with severe sepsis/septic shock; type: in vivo, human; settings: for MAP: i.v. L-arginine-HCl 1.2 μmol/kg·min, mean ± SEM
Procedure: (§1) Methods: According to a placebo-controlled double-blind study design, ICU patients with severe sepsis/septic shock (<48 h; APACHE II scores between 18-41) were randomized in a group treated with intravenous 72-h L-arginine-HCl (1.2 μmol/kg·min, n=9) or isocaloric L-alanine (placebo; n=9). All patients were treated with norepinephrine in a range between […] at the start of study. Haemodynamics were recorded at 2-h intervals throughout the protocol. Blood was sampled at baseline and at 24-h intervals and analysed for plasma nitrotyrosine levels. Repeated measurements ANOVA was used; data are means±SEM.

[2] = Plasma nitrotyrosine during 72-h intravenous infusion in ICU patients with severe sepsis/septic shock; type: in vivo, human; settings: 72-h i.v. infusion, compared with placebo
Procedure: as §1

[3] = hemodialysis patients, pre versus post dialysis run; cited from earlier work

Structure (SMILES): Cl.N=C(N)NCCC[C@H](N)C(=O)O [ARG, L-arginine-HCl]
- Norepinephrine dose, arginine versus placebo ([1]; 72-h i.v. infusion, compared with placebo): No significant differences
- Systemic blood pressure, arginine versus placebo ([1]; 72-h i.v. infusion, compared with placebo, listed as Arginine): does not affect
- Systemic blood pressure, arginine versus placebo ([1]; 72-h i.v. infusion, compared with placebo, listed as arginine): No significant differences
- MAP ([1]; 24 h): 81 ± 3 mmHg
- MAP ([1]; 48 h): 85 ± 4 mmHg
- MAP ([1]; 72 h): 84 ± 5 mmHg
- MAP ([1]; Baseline): 82 ± 4 mmHg
- Plasma nitrotyrosine (oxidative effect on plasma proteins), arginine versus placebo ([2]; listed as Arginine): does not enhance
- Plasma nitrotyrosine (oxidative effect on plasma proteins), arginine versus placebo ([2]; listed as arginine): did not differ
- Decrease of level during dialysis treatment [3]: 36%
